Patent publication US6583147B1, “Pyrazolopyrimidinone derivatives for the treatment of impotence” (Dong A Pharm Co., Ltd., priority 1998, dated 2003)
Converted amounts (≈) assume the structure as drawn. Where two headings read alike, the source gives them in different places.

How the values were obtained:
[1] = tested on: rats; assay: Penile erection test using rats; type: in vivo, rat; details: oral single dose 10 mg/kg in 0.5% methyl cellulose, observed for 2 hours
[2] = biological target: T1, Phosphodiesterase-5 enzyme (PDE 5) (Homo sapiens, UniProt O76074); assay: Test for phosphodiesterase-5 (PDE 5) activity; type: biochemical; details: PDE 5 fraction from human corpus cavernosal tissues
T1 construct: separated by HPLC (Mono Q anion exchange column) with concentration gradient of 0-500 mM NaCl to elute PDE isozymes; from tissue; host or cells: human corpus cavernosal tissue

[3] = biological target: T2, Phosphodiesterase-3 enzyme (PDE 3) (Oryctolagus cuniculus, UniProt G1ST54); assay: Test for phosphodiesterase-3 (PDE 3) activity; type: biochemical; details: PDE 3 fraction from platelets of a rabbit
T2 construct: The supernatant was separated by DEAE-cellulose column chromatography (Whatman DE52 bead); from tissue; host or cells: rabbit platelets
T2 sequence (G1ST54 1-1128): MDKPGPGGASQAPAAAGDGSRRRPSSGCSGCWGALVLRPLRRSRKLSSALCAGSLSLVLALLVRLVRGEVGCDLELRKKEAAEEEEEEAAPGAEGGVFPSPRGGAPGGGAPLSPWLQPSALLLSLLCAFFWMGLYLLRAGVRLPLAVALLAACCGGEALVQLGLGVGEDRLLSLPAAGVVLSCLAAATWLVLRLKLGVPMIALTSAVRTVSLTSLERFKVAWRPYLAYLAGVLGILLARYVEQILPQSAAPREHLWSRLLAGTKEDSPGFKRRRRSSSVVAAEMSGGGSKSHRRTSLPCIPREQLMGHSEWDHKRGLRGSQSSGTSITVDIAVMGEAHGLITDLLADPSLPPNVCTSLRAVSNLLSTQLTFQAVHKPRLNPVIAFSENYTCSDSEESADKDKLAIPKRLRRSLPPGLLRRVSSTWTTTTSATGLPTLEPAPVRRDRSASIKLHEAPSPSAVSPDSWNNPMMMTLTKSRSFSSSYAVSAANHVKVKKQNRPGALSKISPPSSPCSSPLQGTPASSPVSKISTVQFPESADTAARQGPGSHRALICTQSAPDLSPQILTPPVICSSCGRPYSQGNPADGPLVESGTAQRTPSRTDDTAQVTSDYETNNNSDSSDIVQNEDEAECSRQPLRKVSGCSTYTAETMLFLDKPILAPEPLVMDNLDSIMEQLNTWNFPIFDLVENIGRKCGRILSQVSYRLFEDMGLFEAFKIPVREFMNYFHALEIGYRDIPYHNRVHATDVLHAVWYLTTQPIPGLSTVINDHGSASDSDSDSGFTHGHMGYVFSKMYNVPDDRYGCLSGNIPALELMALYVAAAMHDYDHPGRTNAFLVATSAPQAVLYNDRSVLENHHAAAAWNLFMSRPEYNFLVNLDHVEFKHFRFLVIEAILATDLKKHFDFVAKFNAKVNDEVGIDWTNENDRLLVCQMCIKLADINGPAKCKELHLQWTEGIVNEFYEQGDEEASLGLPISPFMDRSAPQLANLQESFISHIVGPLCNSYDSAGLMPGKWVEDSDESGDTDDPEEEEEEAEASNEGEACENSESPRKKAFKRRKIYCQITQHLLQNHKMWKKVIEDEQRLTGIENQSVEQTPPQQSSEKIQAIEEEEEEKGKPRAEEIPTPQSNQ
Procedure: Phosphodiesterase-3 enzyme (PDE 3) was separated from platelets of a rabbit. About 60 ml of blood was collected from a puncture of the abdominal artery of a rabbit in heparinized syringes. Platelet-rich plasma was harvested by centrifugation for 5 min at 450×g and further centrifuged for 15 min at 1,200×g to precipitate the platelets. The platelets were resuspended in homogenizing buffer (50 mM Tris-HCl, 1 mM MgCl2, pH 7.4), homogenized at 4° C. and ultrasonicated (30 sec/ml). The homogenized solution was centrifuged (105,000×g) for 1 hr at 4° C. to obtain the supernatant in which PDE was dissolved. The supernatant was separated by DEAE-cellulose column chromatography (Whatman DE52 bead) by using eluent (50 mM Tris-HCl, 3.75mM2-mercaptoethanol, pH 6.0) with concentration gradient of 0-1 M sodium acetate to elute PDE isozymes. The PDE activity was measured on the each column fraction by the following process to separate PDE 3 fraction and the inhibition for PDE 3 of the compounds of formula 1 was measured by using the fraction.
To 1.5 ml tube containing 100 ul of reaction mixture (15 mM Tris-HCl, 5 mM MgCl2, 0.5 mg/ml BSA, pH 7.4) were added appropriate amount of PDE 3 fraction and PDE inhibitor and the solution was mixed well. After [^3H]-cAMP or [^3H]-cGMP (500 nM, 2 uCi/ml) was added, the mixture was reacted in incubator of 30° C. for about 1 hour and the reaction was quenched by putting the tube into boiling water for about 45 seconds to 2 min. The tube was chilled in ice bath for about 5 min. To this tube was added snake venom (1 mg/ml, 100 ul) or 5′-nucleotidase (0.1 unit/tube) and the mixture was reacted in incubator of 37° C. for 10 min and chilled in ice bath. 3 times volume of methanol to the resin was added to the anion exchange resin (Bio-Rad resin, AG1-X2, 200-400 mesh) which had been already washed with 0.5 N HCl, H2O, 0.5 N NaOH, H2O, 0.5 N HCl and H2O in order and adjusted to pH 5. Then 1 ml of the pretreated resin was added to the each tube with vortexing. The mixture was left at 4° C. for 15 min with occasional vortexing and centrifuged (10,000 rpm) for about 5 min to sediment the resin. The supernatant (700 ul) was transferred to a liquid scintillation vial, and mixed with 10 ml of scintillation cocktail. After stabilizing the mixture by leaving it overnight, the radioactivity of the tube was measured by β-counter.

[4] = Acute oral toxicity test in rats; details: SD, rat, in vivo, 1 g/kg; rats, oral single dose; read-out: lethal dose (LD50) of oral administration
[5] = Solubility in buffer solution in pH=2&5; type: physicochemical; details: for solubility at 30 min: 20 °C, thermodynamic from solid
Procedure: According to that defined in the Korea Pharmacopoeia, citrate-HCl buffer (pH 2) and citrate-NaOH buffer (pH 5) solutions were added to the powdered compounds of formula 1, respectively. After subsequent severe shaking for 30 sec every 5 min in […] for 30 min, the level of compounds in the filtrate was measured by high performance liquid chromatography.

[6] = Metabolism in rat liver (9,000xg supernatant fraction with NADPH); type: in vitro ADME; details: 10 ug/ml, 37° C., 1 hr, rat liver 9,000xg supernatant with NADPH generating solution
Procedure: In order to evaluate the extent of metabolism of the compounds of formula 1, the metabolism in rat liver was studied as below similar to the reported method (C. L. Litterist, E. G. Mimnaugh, R. I. Reagan and T. G. Gram., Drug. Metabol. Disposit., 1975, 3, 259-265). In short, the disappearance of compounds after incubation in 9, 000×g supernatant fraction of rat liver homogenate in the presence of NADPH (reduced nicotinamide adenine dinucleotide phosphate) was evaluated.
First, Sprague-Dawley rat (Korea Experiment Animals, SPF) liver was isolated after perfusion through portal vein with 0.1 M phosphate buffer of pH 7.0 using tissue homogenizer at 4° C. After centrifugation at 9,000×g for 20 min, the supernatants were collected.
The compound stock solution was spiked (10 ug/ml) into each of the eppendorf tubes containing 1 ml of the mixed solution composing 1 volume of supernatants and 2 volumes of generating solution. The generating solution contains 1 mM NADP, 10 mM glucose-6-phosphate, 50 mM nicotinamide and 5 MM MgCl2 in 0.1 M phosphate buffer of pH 7.0. After vortex-mixing, each test tube was incubated in a water bath kept at 37° C. After 1 hr, was added acetonitrile to the reaction mixture and centrifuged. 100 ul of aliquot of the supernatant was sampled from each test tube for measuring the remnants by high performance liquid chromatography.

[7] = citrate-HCl buffer, pH 2, aqueous buffer, citrate-HCl buffer (pH 2), read-out: solubility pH 2
[8] = citrate-NaOH buffer, pH 5, aqueous buffer, citrate-NaOH buffer (pH 5), read-out: solubility pH 5

Row | SMILES | PEI (penile erection index) [1] | genital grooming (number of genital groomings) [1] | IC50 [2] | IC50 [3] | LD50 [4] | solubility at 30 min [5, 7] | solubility at 30 min [5, 8] | remnants (%) [6] | solubility pH 2 ([5]; citrate-HCl buffer (pH 2)) | solubility pH 5 ([5]; citrate-NaOH buffer (pH 5))
1 | CCOc1ccc(S(=O)(=O)NCc2ccncc2)cc1-c1nc2c(CC(C)C)nn(C)c2c(=O)[nH]1 [Example 46, 5-[2-ethoxy-5-(4-pyridylmethylamidosulfonyl)phenyl]-1-methyl-3-isobutyl-1,6-dihydro-7H-pyrazolo (4,3-d)pyrimidin-7-one] | 200.0 ± 173.2 | 1.3 ± 0.6 | 1.2 nM | > 201000 nM | > 1000 mg/kg | 183 µg/mL (≈ 0.369 mM) | 0.4 µg/mL (≈ 0.000805 mM) | 75.9% | – | –
2 | CCOc1ccc(S(=O)(=O)NCc2cccnc2)cc1-c1nc2c(CC(C)C)nn(C)c2c(=O)[nH]1 [Example 48, 5-[2-ethoxy-5-(3-pyridylmethylamidosulfonyl)phenyl]-1-methyl-3-isobutyl-1,6-dihydro-7H-pyrazolo(4,3-d)pyrimidin-7-one] | 166.7 ± 57.7 | 1.3 ± 0.6 | 0.89 nM | 33600 nM | > 1000 mg/kg | 114 µg/mL (≈ 0.23 mM) | 0.3 µg/mL (≈ 0.000604 mM) | 66.0% | – | –
3 | CCCOc1ccc(S(=O)(=O)NCc2cccnc2)cc1-c1nc2c(CCC)nn(C)c2c(=O)[nH]1 [Example 49, 5-[2-propyloxy-5-(3-pyridylmethylamidosulfonyl)phenyl]-1-methyl-3-propyl-1,6-dihydro-7H-pyrazolo(4,3-d)pyrimidin-7-one] | 200.0 ± 173.2 | 1.3 ± 0.6 | 0.3 nM | 25200 nM | > 1000 mg/kg | 43 µg/mL (≈ 0.0866 mM) | – | 71.3% | – | –
4 | CCOc1ccc(S(=O)(=O)NCc2ccccn2)cc1-c1nc2c(CC(C)C)nn(C)c2c(=O)[nH]1 [Example 51, 5-[2-ethoxy-5-(2-pyridylmethylamidosulfonyl)phenyl]-1-methyl-3-isobutyl-1,6-dihydro-7H-pyrazolo(4,3-d)pyrimidin-7-one] | 233.3 ± 152.8 | 3.0 ± 2.0 | 1.5 nM | > 201000 nM | > 1000 mg/kg | 215 µg/mL (≈ 0.433 mM) | 1 µg/mL (≈ 0.00201 mM) | 70.4% | – | –
5 | CCCOc1ccc(S(=O)(=O)NCC2CCCN2C)cc1-c1nc2c(CCC)nn(C)c2c(=O)[nH]1 (centres unmarked) [Example 56, 5-[2-propyloxy-5-(1-methyl-2-pyrrolidinylmethylamidosulfonyl)phenyl]-1-methyl-3-propyl-1,6-dihydro-7H-pyrazolo(4,3-d)pyrimidin-7-one] | 200.0 ± 81.7 | 2.0 ± 0.0 | 14.2 nM | > 199000 nM | > 1000 mg/kg | 3720 to 5360 µg/mL (≈ 7.4 to 10.7 mM) | 4920 to 14800 µg/mL (≈ 9.79 to 29.4 mM) | 83.9% | 3918 ug/ml | 6361 ug/ml
6 | CCOc1ccc(S(=O)(=O)NCC2CCCN2C)cc1-c1nc2c(CC(C)C)nn(C)c2c(=O)[nH]1 (centres unmarked) [Example 58, 5-[2-ethoxy-5-(1-methyl-2-pyrrolidinylmethylamidosulfonyl)phenyl]-1-methyl-3-isobutyl-1,6-dihydro-7H-pyrazolo(4,3-d)pyrimidin-7-one] | 275.0 ± 170.8 | 3.0 ± 1.8 | 16 nM | > 199000 nM | > 1000 mg/kg | 3720 to 5360 µg/mL (≈ 7.4 to 10.7 mM) | 4920 to 14800 µg/mL (≈ 9.79 to 29.4 mM) | 93.5% | 3722 ug/ml | 9003 ug/ml
7 | CCCOc1ccc(S(=O)(=O)NCC2CCN(C)C2)cc1-c1nc2c(CCC)nn(C)c2c(=O)[nH]1 (centres unmarked) [Example 60, 5-[2-propyloxy-5-(1-methyl-3-pyrrolidinylmethylamidosulfonyl)phenyl]-1-methyl-3-propyl-1,6-dihydro-7H-pyrazolo(4,3-d)pyrimidin-7-one] | 300.0 ± 81.7 | 2.8 ± 0.5 | 34.7 nM | > 199000 nM | > 1000 mg/kg | 3720 to 5360 µg/mL (≈ 7.4 to 10.7 mM) | 4920 to 14800 µg/mL (≈ 9.79 to 29.4 mM) | 78.2% | 4497 ug/ml | 4923 ug/ml
8 | CCOc1ccc(S(=O)(=O)NCC2CCN(C)C2)cc1-c1nc2c(CC(C)C)nn(C)c2c(=O)[nH]1 (centres unmarked) [Example 62, 5-[2-ethoxy-5-(1-methyl-3-pyrrolidinylmethylamidosulfonyl)phenyl]-1-methyl-3-isobutyl-1,6-dihydro-7H-pyrazolo(4,3-d)pyrimidin-7-one] | 200.0 ± 100.0 | 3.0 ± 1.0 | 41.7 nM | 164000 nM | > 1000 mg/kg | 3720 to 5360 µg/mL (≈ 7.4 to 10.7 mM) | 4920 to 14800 µg/mL (≈ 9.79 to 29.4 mM) | 94.5% | 4383 ug/ml | 3596 ug/ml
